The Km is the substrate concentration at which the rate is half of its maximum.

Molecules are shown by their SMILES.

In this assay the target is T1, α-L-iduronidase (IdA; EC 3.2.1.76) (Homo sapiens, UniProt P35475).
T1 construct: Incubation with IdA present in DBS leads to enzymatic release of the iduronyl group; from tissue; host or cells: dried blood spot (DBS) extract, 3-mm punch
T1 sequence (P35475 28-653): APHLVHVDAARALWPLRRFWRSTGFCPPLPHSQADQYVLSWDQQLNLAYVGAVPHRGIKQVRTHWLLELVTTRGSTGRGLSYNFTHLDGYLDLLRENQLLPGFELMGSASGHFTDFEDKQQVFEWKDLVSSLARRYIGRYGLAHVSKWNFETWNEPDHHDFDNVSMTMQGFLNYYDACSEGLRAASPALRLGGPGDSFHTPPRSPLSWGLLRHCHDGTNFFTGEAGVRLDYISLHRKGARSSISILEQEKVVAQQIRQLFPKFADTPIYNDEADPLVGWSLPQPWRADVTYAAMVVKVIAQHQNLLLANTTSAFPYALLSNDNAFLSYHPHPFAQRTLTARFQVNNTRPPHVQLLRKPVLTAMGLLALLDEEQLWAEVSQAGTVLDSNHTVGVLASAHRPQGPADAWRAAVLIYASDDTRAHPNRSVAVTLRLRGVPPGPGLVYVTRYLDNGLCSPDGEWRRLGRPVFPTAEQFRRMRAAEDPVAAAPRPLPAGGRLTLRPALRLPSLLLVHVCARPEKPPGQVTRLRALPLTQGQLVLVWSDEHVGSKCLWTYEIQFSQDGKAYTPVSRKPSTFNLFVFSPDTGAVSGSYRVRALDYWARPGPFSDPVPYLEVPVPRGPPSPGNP
Briefly: ESI-MSMS assay of α-L-iduronidase enzymatic activity in dried blood spots (IdA-P formed as a function of IdA-S concentration). In kind it is biochemical. The following applies: IdA in DBS extract; 37° C., 20 h; IdA-S 0 to 0.67 mmol/L; fit to Michaelis-Menten equation (FIG. 7). As to the method: A representative method of the invention for assaying α-L-iduronidase enzymatic activity by tandem mass spectrometry is described in Example 3. […] The amount of IdA-P increases linearly with incubation time from 0 to 30 h (FIG. 6); 20 h was chosen as the standard incubation time for the assay described in Example 3. The amount of IdA-P formed at 20 h increased in a hyperbolic fashion as the concentration of IdA-S increased from 0 to 0.67 mmol/L, and Km was determined to be 0.2 mmol/L (FIG. 7). An IdA-S concentration of 0.5 mmol/L was chosen in order to be under saturation conditions. The amount of IdA-P increases with the surface area of added DBS (FIG. 8), with a plateau reached at higher blood amounts (presumably due to the presence of endogenous inhibitors in the DBS). In one embodiment, the method uses a 3-mm-DBS punch.
A single 3-mm diameter DBS (containing ˜3.6 μL of blood) was obtained with a leather punch and was placed in a 1-mL Eppendorf tube. Extraction buffer [160 μL of 0.1 mol/L sodium formate pH 3.4 containing 75 μmol/L D-saccharic acid 1,4-lactone (Sigma); storage at −20° C.] was added to the tube. […]
Extraction of IdA-P and IdA-IS from the enzymatic reaction and blank was performed by addition of 250 μL of ethyl acetate. […] The sample was analyzed within the first 45 seconds of infusion, and after 1 min, the MSMS signal has returned to the background level. […]

As for `CC(C)(C)OC(=O)NCCCCNC(=O)Cc1cc(=O)oc2cc(O[C@@H]3O[C@@H](C(=O)O)[C@@H](O)[C@H](O)[C@H]3O)ccc12` [IdA-S, (N-[4″-(tert-butoxycarbonylamino)-butyl]) 7-O-(α-L-idopyranosyluronic acid)coumarin-4-acetamide], the Michaelis-Menten constant (Km) came to 200 µM.
